In brackets after ≈: the same amount, converted by molar mass. Where two headings read alike, the source gives them in different places.
What was measured:
[1] = system: E. coli GC 2231; test: MIC, broth microdilution
[2] = system: E. coli GC 2232; test: MIC, broth microdilution
[3] = system: E. coli GC 2272; test: MIC, broth microdilution
[4] = system: E. coli GC 4560; test: MIC, broth microdilution; settings: Escherichia coli, GC4560, E. coli GC 4560
[5] = system: E. coli GC 6465; test: MIC, broth microdilution; settings: Escherichia coli, GC6465, E. coli GC 6465
[6] = system: E. coli GC 3226; test: MIC, broth microdilution
[7] = system: E. coli GC 2203; test: MIC, broth microdilution
Description: (§1) Antimicrobial susceptibility testing. The in vitro activities of the antibiotics are determined by the broth microdilution method as recommended by the National Committee for Clinical Laboratory Standards (NCCLS) (1). Mueller-Hinton II broth (MHBII)(BBL Cockeysville, Md.) is the medium employed in the testing procedures. Microtiter plates containing serial dilutions of each antimicrobial agent are inoculated with each organism to yield the appropriate density (10^5 CFU/ml) in a 100 μl final volume. The plates are incubated for 18-22 hours at 35° C. in ambient air. […] Standard Pharmacological Test Procedures
(§2) Presented in Tables I-XIII are representative compounds of Formula I which were evaluated against a panel of 40 selected gram-positive and gram-negative bacteria strains by pre-incubation in water, mouse serum or human serum. Representative compounds were first incubated in mouse serum for an hour prior to the in vitro testing against a panel of selected gram-positive and gram-negative bacteria strains. All compounds were also pre-incubated in water for an hour prior to testing as control. Representative compounds of Formula I were incubated in human serum prior to MIC determination.

[8] = system: S. typhimurium GC 2172; test: MIC, broth microdilution; settings: Salmonella enterica, TYPHIMURIUM
[9] = system: S. aureus GC 6466; test: MIC, broth microdilution; settings: Staphylococcus aureus
Description: as §1, §2

[10] = system: S. aureus GC 6467; test: MIC, broth microdilution
[11] = system: S. aureus GC 4536; test: MIC, broth microdilution
[12] = system: S. aureus GC 6469; test: MIC, broth microdilution
Description: Antimicrobial susceptibility testing. The in vitro activities of the antibiotics are determined by the broth microdilution method as recommended by the National Committee for Clinical Laboratory Standards (NCCLS) (1). Mueller-Hinton II broth (MHBII)(BBL Cockeysville, Md.) is the medium employed in the testing procedures. Microtiter plates containing serial dilutions of each antimicrobial agent are inoculated with each organism to yield the appropriate density (10^5 CFU/ml) in a 100 μl final volume. The plates are incubated for 18-22 hours at 35° C. in ambient air.
Representative compounds were first incubated in mouse serum for an hour prior to the in vitro testing against a panel of selected gram-positive and gram-negative bacteria strains. All compounds were also pre-incubated in water for an hour prior to testing as control.

[13] = system: E. faecalis GC 4555; test: MIC, broth microdilution; settings: Enterococcus faecalis
[14] = system: E. faecalis GC 2265; test: MIC, broth microdilution
[15] = system: E. faecalis GC 2267; test: MIC, broth microdilution
[16] = system: E. faecium GC 2243; test: MIC, broth microdilution
[17] = system: S. pneumoniae* GC 4465; test: MIC, broth microdilution; settings: Streptococcus pneumoniae
[18] = system: S. agalactiae GC 4564; test: MIC, broth microdilution
[19] = system: Staph.; test: Range of MIC for Staph. strains, including MRSA; settings: Staphylococcus aureus, MRSA
[20] = system: E. coli; test: Range of MIC for E. coli strains; settings: Escherichia coli
[21] = read-out: Range of MIC, Staph (Mouse Serum)
[22] = read-out: Range of MIC, Staph (Water)

CCCN(CC(=O)Nc1cc(N(C)C)c2c(c1O)C(=O)C1=C(O)[C@]3(O)C(=O)C(C(N)=O)=C(O)[C@@H](N(C)C)[C@@H]3C[C@@H]1C2)C(=O)OCC [Example 15, ethyl 2-{[(5aR,6aS,7S,10aS)-9-(aminocarbonyl)-4,7-bis(dimethylamino)-1,8,10a,11-tetrahydroxy-10,12-dioxo-5,5a,6,6a,7,10,10a,12-octahydrotetracen-2-yl]amino}-2-oxoethyl(propyl)carbamate]
MIC ([1]; Escherichia coli, GC2231, E. coli GC 2231, Mouse Serum pre-incubation): > 64 µg/mL
MIC ([1]; Escherichia coli, GC2231, E. coli GC 2231, Water pre-incubation): > 64 µg/mL
MIC ([2]; Escherichia coli, GC2232, E. coli GC 2232, Mouse Serum pre-incubation): > 64 µg/mL
MIC ([2]; Escherichia coli, GC2232, E. coli GC 2232, Water pre-incubation): > 64 µg/mL
MIC ([3]; Escherichia coli, GC2272, E. coli GC 2272, Mouse Serum pre-incubation): > 64 µg/mL
MIC ([3]; Escherichia coli, GC2272, E. coli GC 2272, Water pre-incubation): > 64 µg/mL
MIC ([4]; Mouse Serum pre-incubation): 1 µg/mL (≈ 1.55 µM)
MIC ([4]; Water pre-incubation): 1 µg/mL (≈ 1.55 µM)
MIC ([5]; Mouse Serum pre-incubation): > 64 µg/mL
MIC ([5]; Water pre-incubation): > 64 µg/mL
MIC ([6]; Escherichia coli, GC3226, E. coli GC 3226, Mouse Serum pre-incubation): > 64 µg/mL
MIC ([6]; Escherichia coli, GC3226, E. coli GC 3226, Water pre-incubation): > 64 µg/mL
MIC ([7]; Escherichia coli, GC2203, E. coli GC 2203, Mouse Serum pre-incubation): 32 µg/mL (≈ 49.7 µM)
MIC ([7]; Escherichia coli, GC2203, E. coli GC 2203, Water pre-incubation): 64 µg/mL (≈ 99.4 µM)
MIC ([8]; S. typhimurium GC 2172, Mouse Serum pre-incubation): > 64 µg/mL
MIC ([8]; S. typhimurium GC 2172, Water pre-incubation): > 64 µg/mL
MIC ([9]; GC6466, S. aureus GC 6466, Mouse Serum pre-incubation): 2 µg/mL (≈ 3.11 µM)
MIC ([9]; GC6466, S. aureus GC 6466, Water pre-incubation): 4 µg/mL (≈ 6.21 µM)
MIC ([10]; Staphylococcus aureus, GC6467, S. aureus GC 6467, Mouse Serum pre-incubation): 16 µg/mL (≈ 24.9 µM)
MIC ([10]; Staphylococcus aureus, GC6467, S. aureus GC 6467, Water pre-incubation): 16 µg/mL (≈ 24.9 µM)
MIC ([11]; Staphylococcus aureus, GC4536, S. aureus GC 4536, Mouse Serum pre-incubation): 2 µg/mL (≈ 3.11 µM)
MIC ([11]; Staphylococcus aureus, GC4536, S. aureus GC 4536, Water pre-incubation): 4 µg/mL (≈ 6.21 µM)
MIC ([12]; Staphylococcus aureus, GC6469, S. aureus GC 6469, Mouse Serum pre-incubation): 4 µg/mL (≈ 6.21 µM)
MIC ([12]; Staphylococcus aureus, GC6469, S. aureus GC 6469, Water pre-incubation): 8 µg/mL (≈ 12.4 µM)
MIC ([13]; GC4555, E. faecalis GC 4555, Mouse Serum pre-incubation): 4 µg/mL (≈ 6.21 µM)
MIC ([13]; GC4555, E. faecalis GC 4555, Water pre-incubation): 8 µg/mL (≈ 12.4 µM)
MIC ([14]; Enterococcus faecalis, GC2265, E. faecalis GC 2265, Mouse Serum pre-incubation): 8 µg/mL (≈ 12.4 µM)
MIC ([14]; Enterococcus faecalis, GC2265, E. faecalis GC 2265, Water pre-incubation): 8 µg/mL (≈ 12.4 µM)
MIC ([15]; Enterococcus faecalis, GC2267, E. faecalis GC 2267, Mouse Serum pre-incubation): 8 µg/mL (≈ 12.4 µM)
MIC ([15]; Enterococcus faecalis, GC2267, E. faecalis GC 2267, Water pre-incubation): 8 µg/mL (≈ 12.4 µM)
MIC ([16]; Enterococcus faecium, GC2243, E. faecium GC 2243, Mouse Serum pre-incubation): 8 µg/mL (≈ 12.4 µM)
MIC ([16]; Enterococcus faecium, GC2243, E. faecium GC 2243, Water pre-incubation): 8 µg/mL (≈ 12.4 µM)
MIC ([17]; S. pneumoniae* GC 4465, Mouse Serum pre-incubation): 2 µg/mL (≈ 3.11 µM)
MIC ([17]; S. pneumoniae* GC 4465, Water pre-incubation): 2 µg/mL (≈ 3.11 µM)
MIC ([18]; Streptococcus agalactiae, GC4564, S. agalactiae GC 4564, Mouse Serum pre-incubation): 8 µg/mL (≈ 12.4 µM)
MIC ([18]; Streptococcus agalactiae, GC4564, S. agalactiae GC 4564, Water pre-incubation): 8 µg/mL (≈ 12.4 µM)
MIC [19, 21]: 2 to 16 µg/mL (≈ 3.11 to 24.9 µM)
MIC [19, 22]: 4 to 16 µg/mL (≈ 6.21 to 24.9 µM)

CCCCN(CC(=O)Nc1cc(N(C)C)c2c(c1O)C(=O)C1=C(O)[C@]3(O)C(=O)C(C(N)=O)=C(O)[C@@H](N(C)C)C3CC1C2)C(=O)OCc1oc(=O)oc1C (stereo partly drawn) [Example 109, (5-methyl-2-oxo-1,3-dioxol-4-yl)methyl 2-{[(7S,10aS)-9-(aminocarbonyl)-4,7-bis(dimethylamino)-1,8,10a,11-tetrahydroxy-10,12-dioxo-5,5a,6,6a,7,10,10a,12-octahydrotetracen-2-yl]amino}-2-oxoethyl(butyl)carbamate]
MIC ([1]; Escherichia coli, GC2231, pre-incubation in mouse serum): 0.5 µg/mL (≈ 0.674 µM)
MIC ([1]; Escherichia coli, GC2231, pre-incubation in water): 1 µg/mL (≈ 1.35 µM)
MIC ([1]; pre-incubation in mouse serum): 1 UG/ML
MIC ([1]; pre-incubation in water): 2 UG/ML
MIC ([2]; Escherichia coli, GC2232, pre-incubation in mouse serum): 0.5 µg/mL (≈ 0.674 µM)
MIC ([2]; Escherichia coli, GC2232, pre-incubation in water): 1 µg/mL (≈ 1.35 µM)
MIC ([2]; pre-incubation in water): 2 UG/ML
MIC ([3]; Escherichia coli, GC2272, pre-incubation in mouse serum): 0.25 µg/mL (≈ 0.337 µM)
MIC ([3]; pre-incubation in mouse serum): 0.50 UG/ML
MIC ([6]; Escherichia coli, GC3226, pre-incubation in mouse serum): 0.5 µg/mL (≈ 0.674 µM)
MIC ([6]; pre-incubation in mouse serum): 1 UG/ML
MIC ([7]; Escherichia coli, GC2203, pre-incubation in mouse serum): 0.5 µg/mL (≈ 0.674 µM)
MIC ([7]; Escherichia coli, GC2203, pre-incubation in water): 1 µg/mL (≈ 1.35 µM)
MIC ([7]; pre-incubation in water): 2 UG/ML
MIC ([8]; pre-incubation in mouse serum): 4 µg/mL (≈ 5.39 µM)
MIC ([8]; pre-incubation in water): 16 µg/mL (≈ 21.6 µM)
MIC ([9]; GC6466, pre-incubation in mouse serum): 0.5 µg/mL (≈ 0.674 µM)
MIC ([10]; Staphylococcus aureus, GC6467, pre-incubation in mouse serum): 2 µg/mL (≈ 2.7 µM)
MIC ([10]; Staphylococcus aureus, GC6467, pre-incubation in water): 4 µg/mL (≈ 5.39 µM)
MIC ([10]; pre-incubation in water): 8 UG/ML
MIC ([11]; Staphylococcus aureus, GC4536, pre-incubation in mouse serum): 1 µg/mL (≈ 1.35 µM)
MIC ([11]; Staphylococcus aureus, GC4536, pre-incubation in water): 2 µg/mL (≈ 2.7 µM)
MIC ([11]; pre-incubation in water): 4 UG/ML
MIC ([12]; Staphylococcus aureus, GC6469, pre-incubation in mouse serum): 1 µg/mL (≈ 1.35 µM)
MIC ([12]; pre-incubation in mouse serum): 2 UG/ML
MIC ([13]; GC4555, pre-incubation in mouse serum): 0.5 µg/mL (≈ 0.674 µM)
MIC ([13]; GC4555, pre-incubation in water): 1 µg/mL (≈ 1.35 µM)
MIC ([14]; Enterococcus faecalis, GC2265, pre-incubation in mouse serum): 1 µg/mL (≈ 1.35 µM)
MIC ([14]; Enterococcus faecalis, GC2265, pre-incubation in water): 2 µg/mL (≈ 2.7 µM)
MIC ([14]; pre-incubation in water): 4 UG/ML
MIC ([15]; Enterococcus faecalis, GC2267, pre-incubation in mouse serum): 1 µg/mL (≈ 1.35 µM)
MIC ([15]; Enterococcus faecalis, GC2267, pre-incubation in water): 2 µg/mL (≈ 2.7 µM)
MIC ([15]; pre-incubation in water): 4 UG/ML
MIC ([16]; Enterococcus faecium, GC2243, pre-incubation in mouse serum): 0.5 µg/mL (≈ 0.674 µM)
MIC ([16]; Enterococcus faecium, GC2243, pre-incubation in water): 0.5 µg/mL (≈ 0.674 µM)
MIC ([16]; pre-incubation in water): 1 UG/ML
MIC ([17]; pre-incubation in mouse serum): < 0.06 µg/mL
MIC ([18]; Streptococcus agalactiae, GC4564, pre-incubation in mouse serum): 0.12 µg/mL (≈ 0.162 µM)
MIC ([18]; Streptococcus agalactiae, GC4564, pre-incubation in water): 0.25 µg/mL (≈ 0.337 µM)
MIC ([18]; pre-incubation in mouse serum): <0.06 UG/ML
MIC ([20]; 20 h, read-out: Range of MIC, E. coli (Mouse Serum)): 0.25 to 1 µg/mL (≈ 0.337 to 1.35 µM)
MIC ([20]; read-out: Range of MIC, E. coli (Water)): 1 to 4 µg/mL (≈ 1.35 to 5.39 µM)
MIC [19, 21]: 0.5 to 2 µg/mL (≈ 0.674 to 2.7 µM)
MIC [19, 22]: 4 to 8 µg/mL (≈ 5.39 to 10.8 µM)

Reference: patent publication US20070049564A1 (Wyeth, priority 2005, published 2007)
